Results: patent US11452731B2, “Method of treating and preventing loss of cognition” (ENDORECHERCHE, INC., priority 2009, dated 2022)
Where two headings read alike, the source gives them in different places.

Legend:
[1] = 10% DHEA cream once daily for 12 months in 60 to 70 year old women; format: in vivo
From the text: The use of estrogen replacement therapy requires the addition of progestins to counteract the endometrial proliferation induced by estrogens while both estrogens and progestins could increase the risk of breast cancer (Bardon et al., 1985; Colditz et al., 1995). In order to avoid the limitations of standard estrogen (ERT) or hormonal replacement therapy (HRT), we have studied the effect of DHEA administration to 60 to 70 year old women for 12 months on bone mineral density, parameters of bone formation and turnover, serum lipids, glucose and insulin, adipose tissue mass, muscular mass, energy, well-being as well as on vaginal and endometrial histology (Diamond et al., 1996; Labrie et al., 1997c). DHEA was administered percutaneously to avoid first passage of the steroid precursor through the liver.
We have thus evaluated the effect of chronic replacement therapy with a 10% DHEA cream applied once daily for 12 months in 60 to 70 year old women (N=15). […] These changes in bone mineral density were accompanied by significant decreases at 12 months of 38% and 22% in urinary hydroxyproline and in plasma bone alkaline phosphatase, respectively (all p<0.05).

[2] = cited from earlier work
[3] = 12-month treatment of ovariectomized rats with DHEA alone or with Flutamide or EM-800: bone histomorphometry, bone markers, serum lipids; format: in vivo, rat; settings: 12 months
[4] = 6 months; cited from earlier work
human Ishikawa cells = assay: Alkaline phosphatase activity in human endometrial adenocarcinoma Ishikawa cells (Example 6)
[5] = Uterine and vaginal weight in ovariectomized BALB/c mice treated orally for 9 days with or without estrone (Example 3); format: in vivo; settings: for inhibition of estrone-stimulated uterine weight / inhibition of vaginal weight (estrone-stimulated): OVX mice + estrone, oral 9 days
Outline: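 OVX BALB/c mice (18-20 g) were dosed orally by gavage once daily for 9 days from day 2 post-OVX, with or without estrone s.c. twice daily from day 5 for 6 days. The vehicle was 4% ethanol in 0.4% methylcellulose. Uterine and vaginal weights were taken on the 11th morning after OVX.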

[6] = 26-week treatment of ovariectomized rats: lumbar spine BMD, total body fat, serum cholesterol, ALP (Example 4, experiment 2); format: in vivo, rat; settings: OVX rats, 26 weeks
Procedure: Ten to twelve week-old female Sprague-Dawley rats (Crl:CD(SD)Br) (Charles River Laboratory, St-Constant, Canada) weighing approximately 220-270 g at start of treatment were used. […] The animals were housed individually and were allowed free access to tap water and a pelleted certified rodent feed (Lab Diet 5002, Ralston Purina, St-Louis, Mo.). Experiments were conducted in an animal facility approved by the Canadian Council on Animal Care (CCAC) and the Association for Assessment and Accreditation of Laboratory Animal Care (AAALAC) in accordance with the CCAC Guide for Care and Use of Experimental Animals. […] Treatments were initiated on day 2 of the study and were performed once daily during 26 weeks. In both experiments, animals not receiving a test article were treated with the appropriate vehicle alone during the same period. […] QDR 4500A, Hologic, Waltham, Mass.) and a Regional High Resolution Scan software. […] Samples were processed for serum preparation and frozen at -80° C. until assay. Serum cholesterol levels and alkaline phospatase activity (ALP) were determined using the Boehringer Mannheim Diagnostic Hitachi 911 Analyzer (Boehringer Mannheim Diagnostic Laboratory Systems).

[7] = OVX mice, absence of estrone, 10 μg daily (no-effect statements: 1 μg and 10 μg)
[8] = Premarin 0.25 mg/kg, SERMs 2.5 mg/kg

In the case of `C[C@]12CC[C@H](O)CC1=CC[C@@H]1[C@@H]2CC[C@]2(C)C(=O)CC[C@@H]12` [DHEA, dehydroepiandrosterone], the “decrease in fasting plasma insulin levels” value [1] is reported as 17%, the “decrease in plasma bone alkaline phosphatase” value [1] is reported as 22% and the “decrease in subcutaneous skin fold thickness” value [1] is reported as 9.8%. For the same compound, the “decrease in urinary hydroxyproline” value [1] was 38%, the “decrease of fasting plasma glucose” value [1] was 12% and the “decrease of femoral fat (mid-thigh, computed tomography)” value [1] was 3.8%. The “effect on the endometrium” value [1] was “remained completely atrophic”, the “increase in femoral muscular area” value [1] was 3.5% and the “increase of bone mass density at the hip” value [1] was 2.3%. The “increase of bone mass density at the hip Ward's triangle” value [1] was 3.75%, the “increase of bone mass density at the lumbar spine level” value [1] was 2.2% and the “increase of the index of sebum secretion” value [1] was 79%. For the same compound, the “increase over control in plasma osteocalcin” value [1] was 135%, the “women with stimulated vaginal epithelium maturation among those with a maturation value of zero at onset” value [1] was 8 out of 10 and the “decrease of abdominal subcutaneous fat” value ([2]; both women and men) was 6%. For the same compound, the “decrease of responsiveness of serum insulin to the glucose tolerance test” value ([2]; in vivo) was 13%, the “improvement in the insulin sensitivity index” value ([2]; in vivo) was 34% and the “decrease of abdominal visceral fat” value ([2]; men) was 7.4%. For the same compound, the “decrease of abdominal visceral fat” value ([2]; women) was 10.2%, the “reduction of serum cholesterol versus OVX control” value [3] was 22% and the “Alkaline phosphatase (serum)” value ([3]; OVX rats) was 201±25 IU/L. For the same compound, the “CHOLESTEROL (serum)” value ([3]; OVX rats) was 1.78 ± 0.16 mmol/L, the “OH-proline/creatinin (urine)” value ([3]; OVX rats) was 7.3±1.0 μmol/mmol and the “Triglycerides (serum)” value ([3]; OVX rats) was 0.8 ± 0.1 mmol/L. For the same compound, the “increase in trabecular bone number compared to ovariectomized controls” value ([3]; OVX rats) was 137%, the trabecular bone number ([3]; OVX rats) was 1.27±0.1 per mm and the “trabecular bone volume of the tibia” value ([3]; OVX rats) was 11.9±0.6%. The “decrease of total body fat mass” value [4] was 1.4 kg and the “increase of fat-free mass” value [4] was 0.9 kg.

In the case of `CC1=C(c2ccc(O)cc2)[C@H](c2ccc(OCCN3CCCCC3)cc2)Oc2cc(O)ccc21.Cl` [EM-652.HCl, (S)-(+)-7-hydroxy-3-(4′-hydroxyphenyl)-4-methyl-2-(4″-(2′″-piperidinoethoxy)phenyl)-2H-1-benzopyran hydrochloride], the IC50 (human Ishikawa cells; Homo sapiens, Ishikawa, 120 h, read-out: Inhibition of 1 nM E2-induced stimulation of alkaline phosphatase IC50) is reported as 1.52 ± 0.22 nM, the Emax (human Ishikawa cells; Homo sapiens, Ishikawa, 120 h, read-out: Maximal stimulation of alkaline phosphatase % of 1 nM E2 stimulation) is reported as 1.88 ± 0.26% and the “Maximal inhibition of 1 nM E2-induced stimulation of alkaline phosphatase” value (human Ishikawa cells; Ishikawa cells, 5-day incubation, 1 nM E2) is reported as 98.97 ± 0.174 (18). The “inhibition of estrone-stimulated uterine weight” value ([5]; 1 μg daily) was 24%, the “inhibition of vaginal weight (estrone-stimulated)” value (from here on “inhibition of vaginal weight”) ([5]; 1 μg daily) was 10% and the “inhibition of estrone-stimulated uterine weight” value ([5]; 3 μg daily) was 48%. For the same compound, the “inhibition of vaginal weight” value ([5]; 3 μg daily) was 25%, the “inhibition of estrone-stimulated uterine weight” value ([5]; 10 μg daily) was 72% and the “inhibition of vaginal weight” value ([5]; 10 μg daily) was 53%. The “stimulation of uterine weight (estrogenic effect)” value [5, 7] was “no significant stimulatory effect”, the “stimulation of vaginal weight (estrogenic effect)” value [5, 7] was “no significant stimulatory effect” and the ALP [6] was 78 ± 4 IU. The “CHOLESTEROL (serum)” value [6] was 0.98 ± 0.06 mmol/L, the “TOTAL FAT” value [6] was 27.7 ± 1.4 % and the “reversal of the fat increase induced by estrogen deficiency” value [6] was 78%. The “LUMBAR SPINE BMD” value [6, 8] was 0.2311 ± 0.0040 g/cm^2 and the “LUMBAR SPINE Prevention of Bone Loss” value [6, 8] was 62%.
